Measurements published in US9630962B2, “4-amino-6-(2,6-dichlorophenyl)-2-(phenylamino)-pyrido[2,3-d]pyrimidin-7(8H)-one derivatives, synthesis and uses thereof” (INSTITUT QUÍMIC DE SARRIÁ, CETS FUNDACIÓ PRIVADA, priority 2013, dated 2017).
Like-named read-outs stand apart in the source and are kept apart here. Each block holds one molecule with its values, some of them ahead of it.

What was measured:
[1] = target: T1, BTK (Homo sapiens, UniProt Q06187); assay: Radiometric protein kinase assay (33PanQinase Activity Assay), residual activity; type: biochemical; conditions: 10 μM (1×10^−05 M) test compound, singlicate
T1 construct: purchased ProQinase; host or cells: Sf9 insect cells or E. coli (not specified per kinase)
T1 sequence (Q06187 whole entry): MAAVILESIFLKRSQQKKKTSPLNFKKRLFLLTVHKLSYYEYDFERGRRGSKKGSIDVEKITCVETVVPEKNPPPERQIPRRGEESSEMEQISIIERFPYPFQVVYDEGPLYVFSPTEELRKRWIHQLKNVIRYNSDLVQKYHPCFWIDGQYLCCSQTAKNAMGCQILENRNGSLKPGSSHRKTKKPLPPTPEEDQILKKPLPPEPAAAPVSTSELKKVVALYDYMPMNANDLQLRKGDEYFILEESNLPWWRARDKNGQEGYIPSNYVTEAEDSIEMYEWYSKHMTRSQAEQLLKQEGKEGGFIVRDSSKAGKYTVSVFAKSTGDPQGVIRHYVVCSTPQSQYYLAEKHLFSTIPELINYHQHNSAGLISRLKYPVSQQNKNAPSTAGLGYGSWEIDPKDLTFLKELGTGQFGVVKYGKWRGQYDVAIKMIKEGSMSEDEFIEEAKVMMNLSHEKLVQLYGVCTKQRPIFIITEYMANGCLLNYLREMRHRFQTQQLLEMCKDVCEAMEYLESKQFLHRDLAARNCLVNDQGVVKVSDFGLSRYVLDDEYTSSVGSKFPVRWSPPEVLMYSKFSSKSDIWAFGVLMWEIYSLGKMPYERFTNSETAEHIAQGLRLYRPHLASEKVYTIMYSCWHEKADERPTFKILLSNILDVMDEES
Protocol: (§1) The kinase inhibition profile of compounds of formula (I) was evaluated at Proqinase (http://www.proqinase.conn) by measuring residual activity values at a concentration of 10 μM of the test compound in singlicate in front of the following kinases: BTK, LYN, SYK aa1-635 using the following protocol:
(§2) The compounds were dissolved to 1×10^−03 M stock solutions in 100% DMSO. Subsequently, 100 μl of each stock solution were transferred into wells A3-F12 of a microtiter plate (“master plate”). Wells A1-F2 were filled with 100 μl 100% DMSO as controls. 5×10 μl of the master plate were aliquoted into 5 copy plates, which were stored at −20° Celsius until use. For the testing of each group of up to 8 kinases, one copy plate was used.
(§3) In the process, 90 μl H2O were added to each well of a copy plate. To minimize precipitation, the H2O was added to each well only a few minutes before the transfer of the compound solutions into the assay plates. The plate was shaken thoroughly, resulting in a “compound dilution plate” with a compound concentration of 1×10^−04 M/10% DMSO. This plate was used for the transfer of 5 μl compound solution into the assay plates. The final volume of the assay was 50 μl. All compounds were tested at 1×10^−05 M in singlicate. The final DMSO concentration in the reaction cocktails was 1% in all cases. The compound dilution plates were disposed at the end of each working day.
(§4) A radiometric protein kinase assay (^33PanQinase® Activity Assay) was used for measuring the kinase activity of the corresponding protein kinases. All kinase assays were performed in 96-well FlashPlates™ from Perkin Elmer (Boston, Mass., USA) in a 50 μl reaction volume. The reaction cocktail was pipetted in 4 steps in the following order: • 10 μl of non-radioactive ATP solution (in H2O) • 25 μl of assay buffer/[γ-33P]-ATP mixture • 5 μl of test sample in 10% DMSO • 10 μl of enzyme/substrate mixture
(§5) The protein kinase reaction cocktails were incubated at 30° C. for 60 minutes. The reaction was stopped with 50 μl of 2% (v/v) H3PO4, plates were aspirated and washed two times with 200 μl 0.9% (w/v) NaCl. All assays were performed with a BeckmanCoulter Biomek 2000/SL robotic system. Incorporation of ^33Pi (counting of “cpm”) was determined with a microplate scintillation counter (Microbeta, Wallac).
(§6) All protein kinases provided by ProQinase were expressed in Sf9 insect cells or in E. coli as recombinant GST-fusion proteins or His-tagged proteins. All kinases were produced from human cDNAs and purified by either GSH-affinity chromatography or immobilized metal. Affinity tags were removed from a number of kinases during purification. The purity of the protein kinases was examined by SDS-PAGE/Coomassie staining, the identity was checked by mass spectroscopy.
(§7) For each kinase, the median value of the cpm of six wells of column 1 of each assay plate was defined as “low control” (n=6). This value reflects unspecific binding of radioactivity to the plate in the absence of a protein kinase but in the presence of the substrate. Additionally, for each kinase the median value of the cpm of six wells of column 2 of each assay plate was taken as the “high control”, i.e. full activity in the absence of any inhibitor (n=6). The difference between high and low control of each enzyme was taken as 100% activity.
(§8) As part of the data evaluation the low control of each kinase was subtracted from the high control value as well as from their corresponding “compound values”. The residual activity (in %) for each compound well was calculated by using the following formula: Res. Activity (%)=100×[(signal of compound −low control)/(high control −low control)] Results
(§9) The singlicate residual activity values of the tested compounds at one concentration (1×10^−05 M) in singlicate in the required protein kinase assays are given.

[2] = target: T2, LYN (Homo sapiens, UniProt P07948); assay: as above; type: biochemical; conditions: 10 μM (1×10^−05 M) test compound, singlicate
T2 construct: purchased ProQinase; host or cells: Sf9 insect cells or E. coli (not specified per kinase)
T2 sequence (P07948 whole entry): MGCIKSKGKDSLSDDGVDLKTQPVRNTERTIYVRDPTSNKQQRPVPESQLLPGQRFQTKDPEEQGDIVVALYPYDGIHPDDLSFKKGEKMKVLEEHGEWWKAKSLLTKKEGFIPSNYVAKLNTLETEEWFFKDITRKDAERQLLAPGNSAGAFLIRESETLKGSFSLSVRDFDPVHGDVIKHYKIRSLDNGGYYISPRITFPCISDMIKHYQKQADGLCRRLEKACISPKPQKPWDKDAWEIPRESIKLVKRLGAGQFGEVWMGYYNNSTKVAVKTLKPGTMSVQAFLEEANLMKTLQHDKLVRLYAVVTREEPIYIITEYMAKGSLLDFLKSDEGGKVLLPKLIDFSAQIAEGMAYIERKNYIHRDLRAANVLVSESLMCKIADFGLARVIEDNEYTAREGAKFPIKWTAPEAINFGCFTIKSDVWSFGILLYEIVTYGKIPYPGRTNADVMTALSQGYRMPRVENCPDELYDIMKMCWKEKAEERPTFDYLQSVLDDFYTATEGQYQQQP
Protocol: as §1, §2, §3, §4, §5, §6, §7, §8, §9

[3] = target: T3, SYK aa1-635 (Homo sapiens, UniProt P43405); assay: as above; type: biochemical; conditions: 10 μM (1×10^−05 M) test compound, singlicate
T3 construct: BTK, LYN, SYK aa1-635; purchased ProQinase; host or cells: Sf9 insect cells or E. coli (not specified per kinase)
Protocol: as §1, §2, §3, §4, §5, §6, §7, §8, §9

[4] = tested on: relapsed/refractory non-Hodgkin's lymphoma and CLL; conditions: cited from earlier work
[5] = tested on: CLL cell lines; assay: MTT proliferation assay, growth inhibition; type: cell-based; conditions: n = 3 cell lines
Protocol: (§10) Cell culture: cell lines were grown in suitable culture media at 37° C. in a humidified atmosphere containing 5% CO2. The following MCL cell lines were used in the assays: Rec-1, HBL-2, UPN-1, Jeko-1, JVM-2, Maver-1, Mino, Granta-519, and Z-138. The following CLL cell lines were used in the assays: MEC-2, JVM-13, and MEC-1. The following FL cell lines were used in the assays: DoHH-2, WSU-NHL, WSU-FSCCL, and SC-1. The following DLBCL cell lines were used in the assays: OCI-LY8, SUDHL-8, U-2932, and SUDHL-16. The following media were used for the indicated cell lines: RPMI 1640+10% foetal bovine serum (FBS) for Rec-1, HBL-2, UPN-1, JVM-2, MAVER, Z138, Mino, JVM-13, WSU-NHL, WSU-FSCCL, DOHH2, SC-1 and U2932; RPMI 1640+20% FBS for Jeko-1, SUDHL-8 and SUDHL-16; DMEM+10% FBS for Granta-519; IMDM+10% FBS for MEC-1 and MEC-2; IMDM+20% FBS for OCI-LY8.
(§11) Analysis of the growth inhibition is carried out using the MTT (Thiazolyl Blue Tetrazolium Bromide) proliferation assay: cells grown in exponential phase were seeded in 96 well plates at 0.5×10^6 cell/ml and treated with 4-amino-6-(2,6-dichlorophenyl)-8-methyl-2-(4-(4-methylpiperazin-1-yl)phenylamino)pyrido[2,3-d]pyrimidin-7(8H)-one (Example 5) at the doses of 0.5, 1.5, 10, 20, 50 and 100 μM. After 24 h or 48 h, MTT reagent was added to each well, incubated for 2 h and plates were then read in a Synergy-HT Multi-Mode Microplate Reader (Biotek).

[6] = tested on: DLBCL cell lines; assay: MTT proliferation assay, growth inhibition; type: cell-based; conditions: n = 4 cell lines
Protocol: as §10, §11

[7] = tested on: FL cell lines; assay: MTT proliferation assay, growth inhibition; type: cell-based; conditions: n = 4 cell lines
Protocol: as §10, §11

[8] = tested on: MCL cell lines; assay: MTT proliferation assay, growth inhibition; type: cell-based; conditions: N9, n = 9 cell lines
Protocol: as §10, §11

[9] = tested on: panel of 20 NHLs cell lines; assay: MTT proliferation assay, growth inhibition; type: cell-based; conditions: all tested cell lines
Protocol: as §10, §11

[10] = tested on: phospho-Lyn; assay: Western blot of BCR kinase phosphorylation in NHL cell lines; type: cell-based; conditions: 6 h, UPN-1, JVM-13, DoHH-2, SUDHL-16 cells
Protocol: (§12) Analysis of B-Cell Receptor (BCR) activation signaling molecules by Western Blot and flow cytometry. Total protein extracts in 1% Triton X-100 plus protease and phosphatase inhibitors were made from cells treated with a range of doses of the indicated compound (0.1, 1, 5 and 10 μM). These cells lysates were resolved by standard SDS-PAGE (sodium dodecyl sulfate polyacrylamide gel electrophoresis), transferred to PVDF (polyvinylidene difluoride) membranes and incubated overnight with the indicated primary antibodies (pSyk, pLyn and β-actin) followed by species-matched secondary horseradish peroxidase (HRP)-labelled antibodies. Chemiluminiscence was developed adding ECL (enhanced chemilumiscence) reagent and signal was captured in a LAS4000 device using Image Gauge software (Fujifilm). Intracellular amount of PhosphoY223-Btk was determined by inmunostaining with an anti-phosphoY223-Btk-PE antibody (clone N35-86), using IgG1 K isotype-PE as negative control (BD Biosciences). After the different treatments, cells (5×10^5) were fixed in 4% paraformaldehyde in PBS (15 min, 4° C.), permeabilized with cold methanol (10 min, −20° C.), washed with PBS containing 1% BSA and incubated with the indicated antibodies at room temperature for 15 min. Finally, cells were washed with PBS containing 1% BSA, resuspended in 500 μl PBS and analyzed by flow cytometry in an Attune acoustic focusing cytometer (Life Technologies). The Mean Fluorescence Ratio (MFIR) between the mean fluorescence intensity of Btk-PE signal and isotypic control was then calculated for both untreated and treated conditions. These MFIR were then referred to the untreated control (r).
(§13) To further assess the inhibitory effect of 4-amino-6-(2,6-dichlorophenyl)-8-methyl-2-(4-(4-methylpiperazin-1-yl)phenylamino)pyrido[2,3-d]pyrimidin-7(8H)-one (Example 5) on the activity of BCR kinases, a set of 4 cell lines representative of each entity was exposed for 6 h to increased doses of 4-amino-6-(2,6-dichlorophenyl)-8-methyl-2-(4-(4-methylpiperazin-1-yl)phenylamino)pyrido[2,3-d]pyrimidin-7(8H)-one (Example 5) and cell contents in phospho-Syk and phospho-Lyn were analysed by SDS-PAGE and western blotting with specific antibodies, using β-actin as a loading control. […] For the evaluation of phospho-Btk protein levels, cell lines were treated as above with a 5 μM dose of the compound and stained with an anti-phospho-Btk phycoerythin(PE)-labeled antibody followed by flow cytometry analysis.

[11] = tested on: phospho-Syk; assay: as above; type: cell-based; conditions: 6 h, UPN-1, JVM-13, DoHH-2, SUDHL-16 cells
Protocol: as §12, §13

[12] = tested on: PhosphoY223-Btk; assay: Flow cytometry of intracellular PhosphoY223-Btk; type: cell-based; conditions: 5 μM, 6 h
Protocol: as §12, with “After the different treatments, cells (5×10^5) were fixed in 4% paraformaldehyde in PBS (15 min, 4° C.), permeabilized with cold methanol (10 min, −20° C.), washed with PBS containing 1% BSA and incubated with the indicated antibodies at room temperature for 15 min.” left out, “These MFIR were then referred to the untreated control (r).” left out
To further assess the inhibitory effect of 4-amino-6-(2,6-dichlorophenyl)-8-methyl-2-(4-(4-methylpiperazin-1-yl)phenylamino)pyrido[2,3-d]pyrimidin-7(8H)-one (Example 5) on the activity of BCR kinases, a set of 4 cell lines representative of each entity was exposed for 6 h to increased doses of 4-amino-6-(2,6-dichlorophenyl)-8-methyl-2-(4-(4-methylpiperazin-1-yl)phenylamino)pyrido[2,3-d]pyrimidin-7(8H)-one (Example 5) and cell contents in phospho-Syk and phospho-Lyn were analysed by SDS-PAGE and western blotting with specific antibodies, using β-actin as a loading control. […]

[13] = 24 h, read-out: GI50 range at 24 h
[14] = 24 h, read-out: Mean GI50 at 24 h
[15] = 48 h, read-out: GI50 range at 48 h
[16] = 48 h, read-out: Mean GI50 at 48 h

- remaining activity at 10 µM [1]: 10%
- remaining activity at 10 µM [2]: 0%
- remaining activity at 10 µM [3]: 31%
Compound: Cn1c(=O)c(-c2c(Cl)cccc2Cl)cc2c(N)nc(Nc3ccc(NCCN4CCOCC4)cc3)nc21 [Example 6, 4-amino-6-(2,6-dichlorophenyl)-8-methyl-2-(4-(2-morpholinoethylamino)-phenylamino)-pyrido[2,3-d]pyrimidin-7(8H)-one]

Compound: COc1cc(Nc2ncc(F)c(Nc3ccc4c(n3)N(COP(=O)(O)O)C(=O)C(C)(C)O4)n2)cc(OC)c1OC [fostamatinib]
- response rate ([4]; DLBCL patients): 22%
- response rate ([4]; FL patients): 10%
- response rate ([4]; MCL patients): 11%
- partial response (PR) ([4]; patients with CLL (6 of 11)): 55%
- dose-limiting toxicity ([4]; phase 1/2 study): diarrhea, neutropenia, and thrombocytopenia

- remaining activity at 10 µM [1]: 3%
- remaining activity at 10 µM [2]: -1%
- remaining activity at 10 µM [3]: 9%
Compound: CN1CCN(c2ccc(Nc3nc(N)c4cc(-c5c(Cl)cccc5Cl)c(=O)n(C)c4n3)cc2)CC1 [Example 5, 4-amino-6-(2,6-dichlorophenyl)-8-methyl-2-(4-(4-methylpiperazin-1-yl)phenylamino)pyrido[2,3-d]pyrimidin-7(8H)-one]
- GI50 [5, 13]: 5.3 to 6.8 µM
- GI50 [5, 14]: 5.9 µM
- GI50 [5, 15]: 4.5 to 5.5 µM
- GI50 [5, 16]: 4.9 µM
- GI50 [6, 13]: 4.3 to 6.9 µM
- GI50 [6, 14]: 5.4 µM
- GI50 [6, 15]: 3.8 to 7.2 µM
- GI50 [6, 16]: 5 µM
- GI50 [7, 13]: 2.6 to 4.9 µM
- GI50 [7, 14]: 3.7 µM
- GI50 [7, 15]: 1.4 to 4.4 µM
- GI50 [7, 16]: 2.7 µM
- GI50 [8, 13]: 1.3 to 5.9 µM
- GI50 [8, 14]: 3.6 µM
- GI50 [8, 15]: 2.2 to 3.6 µM
- GI50 [8, 16]: 3 µM
- GI50 ([9]; 24 h, read-out: GI50 mean): 4.3 µM
- GI50 ([9]; 24 h, read-out: GI50 range): 1.3 to 6.9 µM
- GI50 ([9]; 48 h, read-out: GI50 mean): 3.6 µM
- GI50 ([9]; 48 h, read-out: GI50 range): 1.4 to 7.2 µM
- Lyn phosphorylation inhibition ([10]; 1 μM): already detectable
- Lyn phosphorylation inhibition ([10]; 5 μM): significantly enhanced
- Lyn phosphorylation inhibition ([10]; 10 μM): almost completely achieved
- Syk phosphorylation inhibition ([11]; 1 μM): already detectable
- Syk phosphorylation inhibition ([11]; 5 μM): significantly enhanced
- Syk phosphorylation inhibition ([11]; 10 μM): almost completely achieved
- downregulation of phospho-Btk (decrease of mean fluorescence intensity ratio) ([12]; DoHH-2 cells): 60%
- downregulation of phospho-Btk (decrease of mean fluorescence intensity ratio) ([12]; JVM-13 cells): 60%
- downregulation of phospho-Btk (decrease of mean fluorescence intensity ratio) ([12]; UPN-1 cells): 30%

- remaining activity at 10 µM [1]: 16%
- remaining activity at 10 µM [2]: 0%
- remaining activity at 10 µM [3]: 44%
Compound: Cn1c(=O)c(-c2c(Cl)cccc2Cl)cc2c(N)nc(Nc3ccc(OCCN4CCOCC4)cc3)nc21 [Example 7, 4-amino-6-(2,6-dichlorophenyl)-8-methyl-2-(4-(2-morpholinoethoxy)-phenylamino)-pyrido[2,3-d]pyrimidin-7(8H)-one]
